Assay results published in ChEMBL document CHEMBL1144272, “Generation of a new class of hNK(2) receptor ligands using the 'fragment approach'” (Bioorg Med Chem Lett, 2005).

target: T1, Substance-K receptor (Homo sapiens, UniProt P21452); assay: Binding affinity for human tachykinin receptor 2 was measured by using [125I]NKA as radio ligand
T1 sequence (P21452 whole entry): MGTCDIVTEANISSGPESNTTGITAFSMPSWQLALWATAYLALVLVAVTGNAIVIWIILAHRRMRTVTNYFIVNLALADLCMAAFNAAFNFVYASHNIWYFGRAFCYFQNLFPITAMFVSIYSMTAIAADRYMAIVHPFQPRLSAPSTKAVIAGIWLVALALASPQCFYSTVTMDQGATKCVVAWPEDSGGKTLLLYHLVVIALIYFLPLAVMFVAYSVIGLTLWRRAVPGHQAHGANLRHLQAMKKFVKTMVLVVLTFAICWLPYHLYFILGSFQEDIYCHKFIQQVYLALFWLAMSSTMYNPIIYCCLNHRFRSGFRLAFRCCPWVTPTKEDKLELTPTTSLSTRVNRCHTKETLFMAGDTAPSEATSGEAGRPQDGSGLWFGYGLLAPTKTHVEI

SMILES	Ki
O=C(Nc1ccc(OCc2ccccc2)cc1)N[C@@H](Cc1ccccc1)C(=O)NCCCN1CCOCC1 (stereo in doubt; 31a (L))	> 1000 nM
O=C(Nc1ccc(OCc2ccccc2)cc1)N[C@H](Cc1ccccc1)C(=O)NCCCN1CCOCC1 (stereo in doubt; 31b (D))	100 nM
O=C(Nc1ccc(OCc2ccccc2)cc1)N[C@@H](Cc1ccccc1)C(=O)NCCCN1CCOCC1 (stereo in doubt; 32a (L))	1200 nM
O=C(Nc1ccc(OCc2ccccc2)cc1)N[C@H](Cc1ccccc1)C(=O)NCCCN1CCOCC1 (stereo in doubt; 32b (D))	630 nM
